Legend:
CCRF-CEM cells [1] = assay: BrDU incorporation analysis (DNA synthesis); type: cell-based, human; conditions: % of positive cells
Description: The cells were cultured in the same way as the cell cycle analysis method. Just before harvesting, 5-bromo-2′-deoxyuridine (BrDU) of 10 µM concentration was added to the cells for pulse-labeling for 30 min. Then, the cells were fixed with −20 °C cold 70% ethanol and stored in a freezer for 16 h. Before antibody staining, the samples were incubated on ice for 30 min, washed once with phosphate-buffered saline (PBS), and re-suspended in 2 M of HCl for 30 min at room temperature to hydrolyze their DNA. After neutralization with 0.1 M of Na2B4O7 (borax) solution, the cells were washed with PBS containing 0.5% Tween-20 and 1% BSA. This was followed by staining with the primary anti-BrDU antibody (Exbio) for 30 min at room temperature. Then, the cells were washed with PBS and stained with a secondary anti-mouse antibody conjugated to fluorescein isothiocyanate (Merck-Sigma, St. Louis, MS, USA) at room temperature in the dark. After another washing with PBS and incubation with propidium iodide (0.1 mg·mL^−1) and RNAse A (0.5 mg·mL^−1) for 1 h at room temperature in the dark, the cells were analyzed by flow cytometry using a 488 nm laser (FACSCalibur, Becton Dickinson, Franklin Lakes, NJ, USA).

HCT116 = assay: MTS cytotoxic assay, HCT116; type: cell-based; conditions: Homo sapiens, HCT-116, 72 h
Source text: (§1) If not indicated otherwise, the cell lines were purchased from the American Type Culture Collection (ATCC). […] K562 is the erythroid-myeloid precursor cell line derived from chronic myeloid leukemia carrying the BCR-ABL hybrid gene. A549, MCF-7, PC-3, 5637, U-2 OS, and MiaPaCa-2 are cells derived from lung, breast, prostate, bladder carcinoma, osteosarcoma, and pancreatic adenocarcinoma, respectively. HEK 293T are transformed human embryonic kidney cells, and L929 (Sigma, St. Louis, MS, USA) are transformed mouse fibroblasts. HCT116, cells from colorectal carcinoma, and their p53 gene knock-out variant (HCT116p53-/-) were purchased from Horizon Discovery. This cell line is a model of human tumors bearing p53 loss-of-function mutations or biallelic deletion of the p53 gene, frequently associated with poor prognosis. The MRC-5 and BJ cells were used as noncancerous cells; more specifically, they are human fibroblasts from the lungs and foreskin, respectively. According to the supplier’s recommendations, all cells were cultured at 37 °C in a 5% CO2 atmosphere and 100% humidity. The culture media used were: DMEM, RPMI 1640, and MEM (according to a cell line); all were supplemented with 5 g L^−1 glucose, 10% fetal calf serum, 2 mM glutamine, 100 U mL^−1 penicillin, 100 µg mL^−1 streptomycin, and NaHCO3. Cells were passaged every two or three days using 0.25% trypsin plus 0.01% EDTA (ethylenediamine tetraacetic acid) in phosphate-buffered saline.
(§2) To evaluate compound cytotoxicity, cells were seeded in 384-well microtiter plates in a volume of […]. The next day, aliquots of the tested derivatives were transferred with Echo550 acoustic liquid handler (Labcyte) to obtain dose response curves with dilution factor 4. The experiments were performed in technical duplicates and three or more biological replicates. After 72 h of incubation in a humidified incubator, […] of the MTS/PMS stock solution were pipetted into each well. After another 1–4 h of incubation, the absorbance at 490 nm was measured using an EnVision Multilabel Plate Reader (PerkinElmer).

BJ = assay: MTS cytotoxic assay, BJ; type: cell-based; conditions: Homo sapiens, BJ, 72 h
Source text: as §1, §2

HCT116p53-/- = assay: MTS cytotoxic assay, HCT116p53-/-; type: cell-based; conditions: Homo sapiens, 72 h
Source text: as §1, §2

A549 = assay: MTS cytotoxic assay, A549; type: cell-based; conditions: Homo sapiens, A549, 72 h
Source text: as §1, §2

PC-3 = assay: MTS cytotoxic assay, PC-3; type: cell-based; conditions: Homo sapiens, PC-3, 72 h
Source text: as §1, §2

U-2 OS = assay: MTS cytotoxic assay, U-2 OS; type: cell-based; conditions: Homo sapiens, U2OS, 72 h
Source text: as §1, §2

HEK 293T = assay: MTS cytotoxic assay, HEK 293T; type: cell-based; conditions: Homo sapiens, HEK-293T, 72 h
Source text: as §1, §2

5637 = assay: MTS cytotoxic assay, 5637; type: cell-based; conditions: Homo sapiens, 72 h
Source text: as §1, §2

MCF-7 = assay: MTS cytotoxic assay, MCF-7; type: cell-based; conditions: Homo sapiens, MCF7, 72 h
Source text: as §1, §2

CCRF-CEM cells [2] = assay: Cell cycle arrest and cell death analysis by flow cytometry (propidium iodide, pH3Ser10); type: cell-based, human; conditions: % of positive cells
Description: Together with the CG-treated cells, a vehicle-treated sample was harvested at the same time point. After 24 h, the cells were washed with cold phosphate-buffered saline, fixed dropwise in 70% ethanol, and stored overnight at −20 °C. The cells were then washed with hypotonic citrate buffer, treated with RNAse (50 µg mL^−1), and stained with propidium iodide. Flow cytometry using a 488 nm laser (FACS-Calibur, Becton Dickinson, NJ, USA) was used for measurement. The cell cycle was analyzed by the ModFitLT program (Verity), and apoptosis was measured in a logarithmic model expressing the percentage of particles with a lower propidium content than cells in the G0/G1 phase (<G1) of the cell cycle in the CellQuest program (Becton Dickinson). Half of the sample was used to label cells with pH3^Ser10-FITC antibody (Exbio) for subsequent flow cytometry analysis of mitotic cells.

CCRF-CEM = assay: MTS cytotoxic assay, CCRF-CEM; type: cell-based; conditions: Homo sapiens, 72 h
Source text: as §1, §2

MiaPaCa-2 = assay: MTS cytotoxic assay, MiaPaCa-2; type: cell-based; conditions: Homo sapiens, MIA PaCa-2, 72 h
Source text: as §1, §2

L929 = assay: MTS cytotoxic assay, L929; type: cell-based, mouse; conditions: Mus musculus, L929, 72 h
Source text: as §1, §2

CCRF-CEM cells [3] = assay: BrU incorporation analysis (RNA synthesis); type: cell-based, human; conditions: % of positive cells
Description: The cells were cultured and processed as described above. Before harvesting, the cells were pulse-labeled with 1 mM of 5-bromouridine (BrU) for 30 min. The cells were then fixed in 1% buffered paraformaldehyde with 0.05% NP-40 at room temperature for 15 min, and then stored at 4 °C overnight. Before measurement, they were washed with 1% glycine in PBS, washed again with PBS, and stained with primary anti-BrdU antibody cross-reactive to BrU (Exbio) for 30 min at room temperature in the dark. From this point on, the experiment was performed exactly as in the method described above.

K562 = assay: MTS cytotoxic assay, K562; type: cell-based; conditions: Homo sapiens, K562, 72 h
Source text: as §1, §2

`C[C@]12CC[C@H]3[C@@H](CCC4=C[C@@H](O[C@@H]5OC[C@@H](O[C@@H]6O[C@H](CO)[C@@H](O)[C@H](O)[C@H]6O)[C@H](O)[C@H]5O)CC[C@@]43C=O)[C@@]1(O)CC[C@@H]2C1=CC(=O)OC1` [Hyr, (3β)-3-[(4-O-β-D-glucopyranosyl-β-D-xylopyranosyl)oxy]-14-hydroxy-19-oxocarda-4,20(22)-dienolide] gave a BrDU (CCRF-CEM cells [1]; 1 × IC50, 24 h) of 30.58%, a BrDU (CCRF-CEM cells [1]; 5 × IC50, 24 h) of 23.58% and an IC50 (HCT116) of 670 ± 37 nM. The IC50 (BJ) was 1450 ± 250 nM, the IC50 (HCT116p53-/-) was 730 ± 98 nM and the IC50 (A549) was 550 ± 38 nM. For the same compound, the IC50 (PC-3) was 756 ± 29 nM, the IC50 (U-2 OS) was 1100 ± 59 nM and the IC50 (HEK 293T) was 383 ± 8.9 nM. The IC50 5637 was 1510 ± 51 nM, the IC50 (MCF-7) was 566 ± 29 nM and the “< G1 (apoptotic cells)” value (CCRF-CEM cells [2]; 1 × IC50, 24 h) was 2.82%. The G0/G1 (CCRF-CEM cells [2]; 1 × IC50, 24 h) was 38.48%, the G2/M (CCRF-CEM cells [2]; 1 × IC50, 24 h) was 26.30% and the “M (Phospho-Histone3 (Ser10))” value (CCRF-CEM cells [2]; 1 × IC50, 24 h) was 1.41%. For the same compound, the S (CCRF-CEM cells [2]; 1 × IC50, 24 h) was 35.22%, the “< G1 (apoptotic cells)” value (CCRF-CEM cells [2]; 5 × IC50, 24 h) was 5.82% and the G0/G1 (CCRF-CEM cells [2]; 5 × IC50, 24 h) was 42.13%. The G2/M (CCRF-CEM cells [2]; 5 × IC50, 24 h) was 34.86%, the “M (Phospho-Histone3 (Ser10))” value (CCRF-CEM cells [2]; 5 × IC50, 24 h) was 0.95% and the S (CCRF-CEM cells [2]; 5 × IC50, 24 h) was 23.01%. For the same compound, the IC50 (CCRF-CEM) was 660 ± 38 nM, the IC50 (MiaPaCa-2) was 491 ± 23 nM and the IC50 (L929) was over 10000 nM. The BrU (CCRF-CEM cells [3]; 1 × IC50, 24 h) was 28.80%, the BrU (CCRF-CEM cells [3]; 5 × IC50, 24 h) was 3.82% and the IC50 (K562) was 800 ± 52 nM.

Source: article PMC7827417, “Steroid Glycosides Hyrcanoside and Deglucohyrcanoside: On Isolation, Structural Identification, and Anticancer Activity” (Foods, 2021)
